Data set [1] concerns the target GSK3β (Homo sapiens, UniProt P49841). Nature of the data set: Inhibitory activity against GSK3β (33P-ATP phosphorylation of prephosphorylated GS1 peptide, two protocols). Format: biochemical. As for the experimental part:
Inhibitory Activity of the Medicament of the Present Invention Against GSK3β Two different protocols can be used. In a first protocol: 7.5 μM of prephosphorylated GS1 peptide and 10 μM ATP (containing 300,000 cpm of ^33P-ATP) were incubated in 25 mM Tris-HCl, pH 7.5, 0.6 mM DTT, 6 mM MgCl2, 0.6 mM EGTA, 0.05 mg/ml BSA buffer for 1 hour at room temperature in the presence of GSK3beta (total reaction volume: 100 microliters). In a second protocol: 4.1 μM of prephosphorylated GS 1 peptide and 42 μM ATP (containing 260,000 cpm ^33P-ATP) were incubated in 80 mM Mes-NaOH, pH 6.5, 1 mM Mg acetate, 0.5 mM EGTA, 5 mM 2-mercaptoethanol, 0.02% Tween 20, 10% glycerol buffer for 2 hours at room temperature in the presence of GSK3beta. Inhibitors were solubilised in DMSO (final solvent concentration in the reaction medium, 1%). The reaction was stopped with 100 microliters of a solution made of 25 g polyphosphoric acid (85% P2O5), 126 ml 85% H3PO4, H2O to 500 ml and then diluted to 1:100 before use. An aliquot of the reaction mixture was then transferred to Whatman P81 cation exchange filters and rinsed with the solution described above. Incorporated 33P radioactivity was determined by liquid scintillation spectrometry. The phosphorylated GS-1 peptide had the following sequence: • NH2-[…](P)EDEE-COOH.

Molecules are shown by their SMILES. Counter-ions that a name gives are not always drawn.

Chain of GSK3β (P49841 whole entry, species assumed): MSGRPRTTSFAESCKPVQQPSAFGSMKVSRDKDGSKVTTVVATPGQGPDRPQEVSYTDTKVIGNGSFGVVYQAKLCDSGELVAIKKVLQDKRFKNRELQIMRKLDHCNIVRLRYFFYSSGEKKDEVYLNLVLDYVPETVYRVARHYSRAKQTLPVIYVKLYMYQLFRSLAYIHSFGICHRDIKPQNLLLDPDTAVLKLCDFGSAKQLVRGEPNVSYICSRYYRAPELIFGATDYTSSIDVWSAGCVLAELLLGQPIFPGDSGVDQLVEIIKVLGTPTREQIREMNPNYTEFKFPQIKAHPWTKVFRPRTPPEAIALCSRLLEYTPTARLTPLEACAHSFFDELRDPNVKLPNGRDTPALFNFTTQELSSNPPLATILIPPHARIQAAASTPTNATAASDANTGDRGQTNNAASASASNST

The melting point is the temperature of the solid-liquid transition. For the compound `Cn1c(N2CC3C[C@H]2CN3)nc(-c2ccncn2)cc1=O` (as salt: hydrochloride), the melting point was 275 to 277 °C.

Turning to `Cn1c(N2CC3C[C@H]2CN3)nc(-c2ccncc2)cc1=O` (as salt: hydrochloride), the melting point was 240 to 242 °C.

One may read the IC50 as the concentration needed to halve the response being measured. Higher therefore signals lower potency. On to `Cc1ccc(N2C[C@@H]3CC2CN3c2nc(-c3ccncc3)cc(=O)n2C)cc1` [4′, (1S)-3-Methyl-6-pyridin-4-yl-2-(5-p-tolyl-2,5-diaza-bicyclo[2.2.1]hept-2-yl)-3H-pyrimidin-4-one], for which the melting point fell in the range of 123 to 125 °C. Also, in data set [1], half-maximal inhibition (IC50) required 4 nM.

Regarding `Cn1c(N2CC3C[C@H]2CN3C(=O)c2ccc(Br)cc2)nc(-c2ccncn2)cc1=O` [Compound 24, (1S)-2-(5-(4-Bromo-benzoyl)-2,5-diaza-bicyclo[2.2.1]hept-2-yl)-1-methyl-1H-[4,4′]bipyrimidinyl-6-one], the melting point was in the range of 142 to 144 °C. The IC50 in data set [1] was found to be 6 nM.

For the origin of these results see patent publication US7211581B2, “Substituted 2-(diaza-bicyclo-alkyl)-pyrimidone derivatives” (Sanofi-Aventis, priority 2003, dated 2007).
